Our source for the inhibition and IC50 values is patent EP2272817A1, “PAI-1 INHIBITOR” (Institute of Medicinal Molecular Design, Inc., priority 2008, dated 2009).

The target in the test is recombinant human PAI-1 (Homo sapiens, UniProt P05121). The test can be described thus: Test Example 2: Human PAI-1 Inhibitory Activity (pH 7.4 HEPES buffer, 10 minutes incubation with two-chain tPA). In kind it is biochemical. Details: purchased Molecular Innovations, Inc. How it is done:
0.1 M HEPES, 0.1 M NaCl. 1 mM EDTA. 0.1 % Polyethylene glycol 8,000 (Hampton Research Corporation),
2 mM Dimethyldecylphoshine oxide [Apo-10] (Fluka Corporation)

[1] abbreviates: read-out: Inhibition Rate of PAI-1 Activity (%).

Some results are limits rather than exact numbers.

recombinant human PAI-1, sequence (P05121 24-402): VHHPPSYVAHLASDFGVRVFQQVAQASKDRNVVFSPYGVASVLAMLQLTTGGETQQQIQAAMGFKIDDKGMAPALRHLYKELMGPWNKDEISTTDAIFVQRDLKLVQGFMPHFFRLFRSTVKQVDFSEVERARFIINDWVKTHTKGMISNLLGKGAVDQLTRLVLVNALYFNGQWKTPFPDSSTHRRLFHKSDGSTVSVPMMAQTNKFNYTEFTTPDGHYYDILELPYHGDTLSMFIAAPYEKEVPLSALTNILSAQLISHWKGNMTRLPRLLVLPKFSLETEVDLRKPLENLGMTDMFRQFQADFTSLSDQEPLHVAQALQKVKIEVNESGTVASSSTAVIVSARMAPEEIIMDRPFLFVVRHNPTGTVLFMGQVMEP

A word on the inhibition: it is the change of the read-out against control, counted positive when it falls. Consider `CCCCN(CC(=O)O)c1ccc(-c2ccc(OC(F)(F)F)cc2)cc1Oc1ccc(C(C)(C)C)cc1` [Compound 533], for which, under setting [1], the inhibition at 0.1 µM was 25%, the inhibition at 0.3 µM was 83%, the inhibition at 1 µM was 97% and the inhibition at 3 µM worked out at 97%.

For the compound `CC(C)c1ccccc1Oc1cc(-c2ccc(OC(F)(F)F)cc2)ccc1/C=C/C(=O)O` [Compound 490], under setting [1], the inhibition at 0.1 µM came to 6%, the inhibition at 0.3 µM came out at 13%, the inhibition at 1 µM stood at 91% and the inhibition at 3 µM was above 99%.

As to `O=C(O)COc1ccc(-c2ccc(OC(F)(F)F)cc2)cc1Oc1ccc(OCc2ccccc2)cc1` [Compound 492], under setting [1], the inhibition at 0.1 µM was found to be 5%, the inhibition at 0.3 µM was 20%, the inhibition at 1 µM was above 99% and the inhibition at 3 µM is above 99%.

As for `CCCCC(Oc1ccc(-c2ccc(OC(F)(F)F)cc2)cc1OCc1ccc(C(C)(C)C)cc1)C(=O)O` (centres unmarked) [Compound 310], under setting [1], the inhibition at 0.1 µM came to 11%, the inhibition at 0.3 µM was found to be 19%, the inhibition at 1 µM came to 72% and the inhibition at 3 µM was found to be 96%.

Consider `CC(C)(C)c1ccc(Oc2cc(-c3cccc(C(F)(F)F)c3)ccc2OCC(=O)O)cc1` [Compound 315], for which, under setting [1], the inhibition at 0.1 µM stood at 13%, the inhibition at 0.3 µM worked out at 16%, the inhibition at 1 µM was determined as 60% and the inhibition at 3 µM was above 99%.

As to `CCCCCOc1cc(-c2ccc(OC(F)(F)F)cc2)ccc1CN(C(=O)C(=O)O)c1ccc(C(C)(C)C)cc1` [Compound 648], under setting [1], the inhibition at 0.1 µM is 4%, the inhibition at 0.3 µM worked out at 23%, the inhibition at 1 µM was 86% and the inhibition at 3 µM came to 89%.

In the case of `O=C(O)/C=C/c1ccc(-c2ccc(OC(F)(F)F)cc2)cc1OC(c1ccccc1)c1ccccc1` [Compound 506], under setting [1], the inhibition at 0.1 µM was 2%, the inhibition at 0.3 µM was found to be 9%, the inhibition at 1 µM was 78% and the inhibition at 3 µM is above 99%.

As to `Cc1cc(C)cc(-c2ccc(/C=C/C(=O)O)c(Oc3ccc(C(C)(C)C)cc3)c2)c1` [Compound 496], under setting [1], the inhibition at 0.1 µM was found to be 4%, the inhibition at 0.3 µM turned out to be 9%, the inhibition at 1 µM came to 85% and the inhibition at 3 µM is above 99%.

Take `CCCCCCCCCCCCCCCOc1cc(-c2ccc(OC(F)(F)F)cc2)ccc1N(CCCCc1ccccc1)C(=O)C(=O)O` [Compound 385]: under setting [1], the inhibition at 0.1 µM came to 74%, the inhibition at 0.3 µM is above 99%, the inhibition at 1 µM was above 99% and the inhibition at 3 µM was above 99%.

`CC(C)(C)c1ccc(Oc2cc(Nc3ccc(OC(F)(F)F)cc3)ccc2CCC(=O)O)cc1` [Compound 532]: under setting [1], the inhibition at 0.1 µM is 12%, the inhibition at 0.3 µM stood at 59%, the inhibition at 1 µM is above 99% and the inhibition at 3 µM is above 99%.

For `CCCCCOc1ccc(-c2ccc(C)cc2)cc1N(CCCCc1ccccc1)C(=O)C(=O)O` [Compound 677], under setting [1], the inhibition at 0.1 µM is 19%, the inhibition at 0.3 µM amounted to 17%, the inhibition at 1 µM was 93% and the inhibition at 3 µM is 96%.

Regarding `CCCCOc1ccc(Oc2cc(-c3ccc(OC(F)(F)F)cc3)ccc2OCC(=O)O)cc1` [Compound 523], under setting [1], the inhibition at 0.1 µM was determined as 11%, the inhibition at 0.3 µM was found to be 15%, the inhibition at 1 µM came to 78% and the inhibition at 3 µM was above 99%.

With `CC(C)(C)c1ccc(Oc2ccc(-c3cccc(C(F)(F)F)c3)cc2OCC(=O)O)cc1` [Compound 314], under setting [1], the inhibition at 0.1 µM stood at 0%, the inhibition at 0.3 µM worked out at 5%, the inhibition at 1 µM was 22% and the inhibition at 3 µM worked out at 93%.

In the case of `CCCCCOc1ccc(-c2ccc(OC(F)(F)F)cc2)cc1N(CCCOc1ccccc1)C(=O)C(=O)O` [Compound 356], under setting [1], the inhibition at 0.1 µM is 7%, the inhibition at 0.3 µM stood at 13%, the inhibition at 1 µM was determined as 53% and the inhibition at 3 µM was above 99%.

In the case of `CC(C)(C)c1ccc(Oc2cc(-c3ccccc3OC(F)(F)F)ccc2/C=C/C(=O)O)cc1` [Compound 466], under setting [1], the inhibition at 0.1 µM is 4%, the inhibition at 0.3 µM was found to be 9%, the inhibition at 1 µM worked out at 88% and the inhibition at 3 µM is above 99%.

`CC(C)(C)c1ccc(Oc2cc(-c3cc(Cl)ccc3Cl)ccc2OCC(=O)O)cc1` [Compound 455]: under setting [1], the inhibition at 0.1 µM is 9%, the inhibition at 0.3 µM stood at 20%, the inhibition at 1 µM is 93% and the inhibition at 3 µM was 99%.

On to `CC(CCOc1ccc(-c2ccc(OC(F)(F)F)cc2)cc1OCc1ccc(C(C)(C)C)cc1)C(=O)O` (centres unmarked) [Compound 482], for which, under setting [1], the inhibition at 0.1 µM was 7%, the inhibition at 0.3 µM is 12%, the inhibition at 1 µM is 52% and the inhibition at 3 µM is above 99%.

`CCCCCOc1cc(Oc2ccc(OC(F)(F)F)cc2)ccc1N(CCCCc1ccccc1)C(=O)C(=O)O` [Compound 362]: under setting [1], the inhibition at 0.1 µM was 11%, the inhibition at 0.3 µM was 18%, the inhibition at 1 µM is 61% and the inhibition at 3 µM was above 99%.

As to `CC(C)(C)c1cccc(Oc2cc(-c3ccc(OC(F)(F)F)cc3)ccc2/C=C/C(=O)O)c1` [Compound 335], under setting [1], the inhibition at 0.1 µM is 4%, the inhibition at 0.3 µM is 8%, the inhibition at 1 µM came out at 80% and the inhibition at 3 µM is above 99%.

For the compound `CC(C)(C)c1ccc(COc2ccc(-c3ccc(OC(F)(F)F)cc3)cc2C(=O)O)cc1` [Compound 421], under setting [1], the inhibition at 0.1 µM was 0%, the inhibition at 0.3 µM came to 3%, the inhibition at 1 µM came out at 14% and the inhibition at 3 µM was determined as 81%.

On to `CC(C)(C)c1ccc(Oc2cc(-c3ccc4ccccc4c3)ccc2/C=C/C(=O)O)cc1` [Compound 469], for which, under setting [1], the inhibition at 0.1 µM stood at 4%, the inhibition at 0.3 µM turned out to be 22%, the inhibition at 1 µM turned out to be 96% and the inhibition at 3 µM was above 99%.

On to `CC(C)(C)c1ccc(Oc2cc(-c3cccc([N+](=O)[O-])c3)ccc2OCC(=O)O)cc1` [Compound 485], for which, under setting [1], the inhibition at 0.1 µM came to 0%, the inhibition at 0.3 µM worked out at 6%, the inhibition at 1 µM is 11% and the inhibition at 3 µM stood at 69%.

In general, IC50 refers to the concentration at which inhibition is half-maximal. On to `CC(C)(C)c1ccc(Oc2ccc(-c3ccc(C(F)(F)F)cc3)cc2OCC(=O)O)cc1` [Compound 328], for which, where the note is “human PAI-1, calculated from the inhibition rates”, the IC50 is 1.46 µM. Further, under setting [1], the inhibition at 0.1 µM was 0%, the inhibition at 0.3 µM is 14%, the inhibition at 1 µM is 30% and the inhibition at 3 µM is above 99%.

For the compound `O=C(O)C(=O)N(CCCCc1ccccc1)c1cc(-c2ccc(OC(F)(F)F)cc2)ccc1OC1C2CC3CC(C2)CC1C3` (centres unmarked) [Compound 634], under setting [1], the inhibition at 0.1 µM came to 17%, the inhibition at 0.3 µM turned out to be 37%, the inhibition at 1 µM is above 99% and the inhibition at 3 µM stood at 92%.

With `CC(C)(C)c1cccc(Oc2ccc(-c3ccc(OC(F)(F)F)cc3)cc2OCC(=O)O)c1` [Compound 439], under setting [1], the inhibition at 0.1 µM worked out at 12%, the inhibition at 0.3 µM was determined as 9%, the inhibition at 1 µM was determined as 44% and the inhibition at 3 µM was above 99%.

With `CC(C)(C)c1ccc(Oc2ccc(-c3cccc(OC(F)(F)F)c3)cc2OCC(=O)O)cc1` [Compound 329], under setting [1], the inhibition at 0.1 µM came out at 6%, the inhibition at 0.3 µM was determined as 11%, the inhibition at 1 µM amounted to 28% and the inhibition at 3 µM was determined as 98%.

Regarding `CCCCC1CCC(Oc2ccc(-c3ccc(OC(F)(F)F)cc3)cc2N(CCCCc2ccccc2)C(=O)C(=O)O)CC1` (centres unmarked) [Compound 637], under setting [1], the inhibition at 0.1 µM amounted to 0%, the inhibition at 0.3 µM amounted to 5%, the inhibition at 1 µM amounted to 80% and the inhibition at 3 µM was 71%.

Consider `CC(C)c1ccccc1Oc1cc(-c2ccc(OC(F)(F)F)cc2)ccc1CCC(=O)O` [Compound 491], for which, under setting [1], the inhibition at 0.1 µM came out at 6%, the inhibition at 0.3 µM was 10%, the inhibition at 1 µM was 66% and the inhibition at 3 µM is above 99%.

For `CCCCC(Oc1cc(-c2ccc(OC(F)(F)F)cc2)ccc1OCc1ccc(C(C)(C)C)cc1)C(=O)O` (centres unmarked) [Compound 313], under setting [1], the inhibition at 0.1 µM turned out to be 1%, the inhibition at 0.3 µM stood at 3%, the inhibition at 1 µM turned out to be 52% and the inhibition at 3 µM was 93%.

Take `O=C(O)CCc1ccc(-c2ccc(OC(F)(F)F)cc2)cc1Oc1ccc(OC(F)(F)F)cc1` [Compound 479]: under setting [1], the inhibition at 0.1 µM turned out to be 17%, the inhibition at 0.3 µM turned out to be 14%, the inhibition at 1 µM is 70% and the inhibition at 3 µM was above 99%.

As for `CCCCCCC(Oc1cc(-c2ccc(OC(F)(F)F)cc2)ccc1Oc1ccc(OC(F)(F)F)cc1)C(=O)O` (centres unmarked) [Compound 326], under setting [1], the inhibition at 0.1 µM turned out to be 0%, the inhibition at 0.3 µM is 28%, the inhibition at 1 µM is 94% and the inhibition at 3 µM was determined as 94%.

On to `O=C(O)CCc1ccc(-c2ccc(OC(F)(F)F)cc2)cc1OC(c1ccccc1)c1ccccc1` [Compound 507], for which, under setting [1], the inhibition at 0.1 µM was found to be 6%, the inhibition at 0.3 µM came to 8%, the inhibition at 1 µM turned out to be 49% and the inhibition at 3 µM is above 99%.

As for `CC(C)(C)c1ccc(COc2ccc(N3CCN(c4ccc(OC(F)(F)F)cc4)CC3)cc2/C=C/C(=O)O)cc1` [Compound 418], under setting [1], the inhibition at 1 µM came out at 73%, the inhibition at 3 µM was 95%, the inhibition at 10 µM turned out to be 94% and the inhibition at 25 µM was 90%.

As to `CCCCC(Oc1cc(-c2ccc(OC(F)(F)F)cc2)ccc1Oc1ccccc1)C(=O)O` (centres unmarked) [Compound 307], under setting [1], the inhibition at 0.1 µM turned out to be 0%, the inhibition at 0.3 µM is 1%, the inhibition at 1 µM came out at 22% and the inhibition at 3 µM turned out to be 91%.
